{"source": "patent US5576187A", "about": "(priority 1994, dated 1996)", "system": "anti-chlorpyrifos monoclonal antibody", "type": "binding, mouse", "data": [{"smiles": "Cn1c(Cl)c(Cl)cc(Cl)c1=O", "note": "[N-methyl-3,5,6-trichloro-2-pyridinone]", "values": [{"measurement": "relative reactivity: concentration equivalent to 1 ppB of chlorpyrifos in the immunoassay", "value": 75, "unit": "ppm"}]}, {"smiles": "CCOP(=O)(Cc1ccc(C)cc1)OCC", "note": "[diethyl 4-methylbenzylphosphonate]", "values": [{"measurement": "relative reactivity: concentration equivalent to 1 ppB of chlorpyrifos in the immunoassay", "value": 50, "unit": "ppm"}]}]}
